# The supplement of paper PMC10307832
# How the values were obtained:
# Assay in all cases: relative viability (nuclei count vs DMSO), 5 days (fraction); higher = more cells survive
# VE-821 + Decitabine = compound: CS(=O)(=O)c1ccc(-c2cnc(N)c(C(=O)Nc3ccccc3)n2)cc1 [VE-821] + Nc1ncn([C@H]2C[C@H](O)[C@@H](CO)O2)c(=O)n1 [Decitabine] (partner 2 µM)
# Summary of the method: (§1)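 Values are medians from duplicate plates. Each reflects relative viability, defined as the nuclei count of treated wells over that of vehicle wells. Lung cancer cell lines in 1536-well plates were pin-tool dosed one day after seeding with one drug alone or with a fixed anchor-drug dose plus five library-drug doses (not always all listed) in √10 steps, then fixed, stained and imaged at 4× after 5 days.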
# VE-821 + Phenformin = compound: CS(=O)(=O)c1ccc(-c2cnc(N)c(C(=O)Nc3ccccc3)n2)cc1 [VE-821] + N=C(N)NC(=N)NCCc1ccccc1 [Phenformin] (partner 250 µM)
# Summary of the method: as §1
# Vismodegib + Alpelisib = compound: CS(=O)(=O)c1ccc(C(=O)Nc2ccc(Cl)c(-c3ccccn3)c2)c(Cl)c1 [Vismodegib] + Cc1nc(NC(=O)N2CCC[C@H]2C(N)=O)sc1-c1ccnc(C(C)(C)C(F)(F)F)c1 [Alpelisib] (partner 2 µM)
# Summary of the method: as §1
# Ruxolitinib + Lapatinib = compound: N#CC[C@H](C1CCCC1)n1cc(-c2ncnc3[nH]ccc23)cn1 [Ruxolitinib] + CS(=O)(=O)CCNCc1ccc(-c2ccc3ncnc(Nc4ccc(OCc5cccc(F)c5)c(Cl)c4)c3c2)o1 [Lapatinib] (partner 2 µM)
# Summary of the method: as §1
Cell Line,relative viability (VE-821 + Decitabine; first compound 0.08 µM),relative viability (VE-821 + Decitabine; first compound 0.253 µM),relative viability (VE-821 + Decitabine; first compound 0.8 µM),relative viability (VE-821 + Decitabine; first compound 2.53 µM),relative viability (VE-821 + Decitabine; first compound 8 µM),relative viability (VE-821 + Phenformin; first compound 0.08 µM),relative viability (VE-821 + Phenformin; first compound 0.253 µM),relative viability (VE-821 + Phenformin; first compound 0.8 µM),relative viability (VE-821 + Phenformin; first compound 2.53 µM),relative viability (VE-821 + Phenformin; first compound 8 µM),relative viability (Vismodegib + Alpelisib; first compound 0.08 µM),relative viability (Vismodegib + Alpelisib; first compound 0.253 µM),relative viability (Vismodegib + Alpelisib; first compound 0.8 µM),relative viability (Vismodegib + Alpelisib; first compound 2.53 µM),relative viability (Vismodegib + Alpelisib; first compound 8 µM),relative viability (Ruxolitinib + Lapatinib; first compound 0.08 µM),relative viability (Ruxolitinib + Lapatinib; first compound 0.253 µM),relative viability (Ruxolitinib + Lapatinib; first compound 0.8 µM),relative viability (Ruxolitinib + Lapatinib; first compound 2.53 µM),relative viability (Ruxolitinib + Lapatinib; first compound 8 µM)
ChaGo-K-1,0.55,0.493,0.506,0.537,0.559,0.454,0.459,0.536,0.496,0.427,–,–,–,–,–,–,–,–,–,–
HCC-44,0.9,0.963,1.05,1.04,1.04,0.261,0.15,0.263,0.198,0.266,0.787,0.771,0.717,0.799,0.818,1.06,1.07,1.04,1.01,0.783
NCI-H441,0.305,0.271,0.226,0.258,0.271,1.02,0.988,1.02,1.02,0.842,0.647,0.633,0.829,0.824,0.745,–,–,–,–,–
NCI-H1299,–,–,–,–,–,–,–,–,–,–,0.984,1.04,1.06,0.973,1.04,0.937,0.963,0.957,0.915,0.718
LU99A,1.01,0.763,0.881,0.801,0.395,0.947,0.896,0.807,0.873,0.478,0.617,0.544,0.474,0.499,0.556,1.11,0.954,1.13,0.754,0.675
NCI-H520,0.516,0.526,0.583,0.545,0.379,0.575,0.613,0.375,0.818,0.381,0.917,0.938,0.988,0.896,0.987,–,0.815,1.04,0.588,0.671
EPLC-272H,0.395,0.359,0.404,0.408,0.345,0.322,0.29,0.326,0.383,0.26,0.894,0.888,0.872,1,0.931,0.164,1.08,0.953,1,0.671
PC-14,0.221,0.241,0.222,0.213,0.126,0.648,0.528,0.675,0.574,0.449,0.884,0.888,1.03,0.907,0.926,–,0.243,0.347,0.316,0.313
LCLC-103H,0.749,0.702,0.778,0.77,0.729,0.335,0.31,0.352,0.351,0.269,1.05,0.973,0.908,0.978,0.947,–,–,–,–,–
NCI-H2342,0.773,0.754,0.704,0.75,0.682,0.756,0.663,0.548,0.508,0.475,–,–,–,–,–,–,–,–,–,–
SW 900,0.471,0.456,0.472,0.469,0.386,0.575,0.555,0.425,0.711,0.572,–,–,–,–,–,–,–,–,–,–
NCI-H1650,0.448,0.369,0.322,0.437,0.389,0.496,0.422,0.363,0.3,0.21,–,–,–,–,–,–,0.826,1.05,0.761,0.89
NCI-H1703,–,–,–,–,–,–,–,–,–,–,0.315,0.311,0.407,0.306,0.422,0.999,1.01,1.12,0.738,0.64
NCI-H1648,0.658,–,0.54,0.498,0.471,–,–,–,–,–,–,–,–,–,–,–,–,–,–,–
NCI-H1563,–,–,–,–,–,0.653,0.676,0.613,0.688,0.596,0.896,0.88,1.01,0.889,1.02,1.07,0.85,0.979,0.903,0.774
NCI-H1623,–,–,–,–,–,0.564,0.557,0.449,0.575,0.497,–,–,–,–,–,–,–,–,–,–
CAL-12T,–,–,–,–,–,0.585,0.526,0.611,0.523,0.396,1.12,1.02,1.37,1.2,1.3,–,0.643,0.88,0.697,0.623
NCI-H2228,–,–,–,–,–,0.356,0.294,0.284,0.457,0.194,0.643,0.952,0.606,0.622,0.758,0.972,1.17,1.22,0.82,0.664
IA-LM,–,–,–,–,–,–,–,–,–,–,0.778,0.728,0.966,0.582,1.04,0.903,0.657,1.04,1.01,0.477
NCI-H522,0.678,0.67,0.7,0.727,0.638,0.675,0.593,0.662,0.555,0.654,–,–,–,–,–,–,–,–,–,–
EBC-1,–,–,–,–,–,–,–,–,–,–,0.838,0.891,0.876,0.789,0.891,0.21,–,0.216,0.232,0.195
Calu-6,–,–,–,–,–,–,–,–,–,–,0.97,0.976,0.901,1.09,0.979,1.09,1.09,1.17,1,0.647
